# Source: patent publication US8846066B2, “Methods and related compositions for reduction of fat and skin tightening” (The Regents of the University of California, priority 2004, dated 2014)
# Values joined by “and” are separate entries in the source; they are usually repeats but may differ in a detail not shown here. Identical values can stand only once.
# Experiments:
# A375M = assay: Killing by DC after pre-incubation with human lipoma fat, A375M; assay type: cell-based
# Method: (§1) The experiment was performed on a series of immortalized melanocyte cell lines. Resected human lipomas were ground up, and DC-containing media was mixed with the human fat and agitated for 24 hours. The material was centrifuged to pellet insoluble contents. The supernatants were then added on top of cultured melanocytes. Control was the identical DC-containing media not exposed to the fat chunks. Also, fat alone (no media) was added as a control.
# [1] = tested on: immortalized melanocyte cell lines; assay: Killing by DC after pre-incubation with human lipoma fat, series of cell lines; assay type: cell-based; conditions: 0.1% DC pre-incubated with human lipoma fat
# Method: as §1
# But it is evident in this experiment that the presence of the fat limits the killing properties of DC, may be by direct inhibition (like PC) or by sequestration (i.e., into the fat pellet). This can further explain the observation that injection of DC into fat spares the surrounding tissues.
# HaCaT cells = assay: Lactate dehydrogenase (LDH) release assay, cell lysis; assay type: cell-based, human; conditions: for LDH release (OD 490): 30 min at 37° C.
# Method: Cell lysis in response to detergent treatment was determined in HaCaT cells incubated with the reagents at the indicated cell dilutions for 30 min at 37° C. Lysis in cultured cells was measured using a lactate dehydrogenase (LDH) assay and within tissue using calcein, a fluorescent marker retained in cells with intact cell membranes. The LDH assay measures the activity of LDH, which is a cytosolic enzyme released when cells are lysed. Lactate dehydrogenase release was measured by absorbance (at 490 nm) after a 1 hour incubation with the LDH assay as recommended by the manufacturer (CytoTox 96 Non-Radioactive Cytotoxicity Assay, Promega). All studies were performed in triplicate. LDH release is directly proportional to absorbance at 490 nm (OD 490).
# lipomas = assay: Human lipoma study with sodium deoxycholate (Example 10); assay type: in vivo
# Method: Six patients having 12 lipomas were injected with sodium deoxycholate (DC) solutions over a period of six months. […] Measurements were made by physical measurements and ultrasound imaging.
# SKmel28 = assay: Killing by DC after pre-incubation with human lipoma fat, SKmel28; assay type: cell-based
# Method: as §1
# fat deposits = assay: Injection of deoxycholate into facial fat deposits of an HIV lipodystrophy patient; assay type: in vivo, human; conditions: 1% deoxycholate, 1 month follow up, both sides
# Method: An HIV lipodystrophy patient with symmetrical fat deposits in their face just vental of their master muscle (sort of in their cheeks, like acorns in the mouth of a chipmunk) was injected with 1% deoxycholate. At 1 month follow up, there was a 50% apparent reduction in deposit volume on both sides.
# [2] = tested on: HaCaT human keratinocyte cells; assay: MTS cell viability assay in cultured HaCaT cells; assay type: cell-based; conditions: for cell viability (MTS, OD 490): 30 min at 37° C.
# Method: To measure cell viability after detergent treatment, HaCaT human keratinocyte cells were cultured in DMEM (Dulbecco's modified Eagle's medium) supplemented with 10% fetal calf serum, penicillin, and streptomycin. […] Cell viability was determined by an absorbance spectrophotometer (at 490 nm) after 4 hour incubation with the assay at 37° C. To determine cell viability in fresh tissue, fat specimens were incubated for 4 hours in 24 well plates with stock reagents and the MTS assay. Tissue specimens were then visualized for color change and the amount of MTS in their supernatants was measured by absorbance (at 490 nm). All studies were performed in triplicate. Absorbance at 490 nm (OD 490) is proportional to the number of living cells in the culture.
# [3] = tested on: Melanocytes (A375P melanoma cell line); assay: MTS survival of melanocytes after DC with or without 1% PC; assay type: cell-based; conditions: 30 min; for Melanocytes surviving in DC only: MTS OD 490 nm, single wells; for Average (DC only): mean MTS OD 490 nm
# Method: Melanocytes in melanocyte media on a 96-well dish were differentiated at 37° C. in a humidified, 5% CO2 incubator for a week. Media was aspirated and washed with 1×PBS once. Cells were treated with different concentrations of DC (from 0 to 0.5%) with or without 1% PC in 1×PBS. Each treatment was done in triplicates (Table 4). The plates were incubated at 37° C. in a humidified, 5% CO2 incubator for 30 min. The incubated plates were aspirated and washed with 1×PBS.
# 10 mL of MTS (3-(4,5-dimethyl-2-yl)-5-(3-carboxymethoxyphenyl)-2-(4-sulfophenyl)-2H-tetrazolium, inner salt) assay solution was prepared (mixed 40 uL MTS (Promega, Madison Wis.) […]). 100 ul of MTS solution was added to each well of the plates. The plates were incubated at 37° C. incubator (non-hunified) for 120 min. OD was taken with spectrophotometer at 490 nm.
# FIG. 7 illustrates the survival of melanocytes in sodium deoxycholate solution and sodium deoxycholate with 1% phosphatidylcholine solution. A375P is a melanoma cell line (P represents poorly metastatic). On y-axis, 1 represents 100% survival when no DC is added. All % concentrations are w/v %. […] The addition of sodium deoxycholate with 1% phosphatidylcholine solution increases the LD50 by ˜5-6 fold.
# [4] = Control = 1.000, DC 0.1% media not exposed to fat
# [5] = Control = 1.000, DC 0.1% media pre-incubated with human lipoma fat
# [6] = DC 0.1% media not exposed to fat
# [7] = single wells, DC 0.1% media not exposed to fat
# [8] = single wells, supernatant of DC 0.1% media agitated 24 hours with human lipoma fat
# [9] = supernatant of DC 0.1% media agitated 24 hours with human lipoma fat
# [10] = Lipoma 1, pre-treatment size 1 cm, 1 treatment
# [11] = Lipoma 4, pre-treatment size 4 × 3.5 cm, 4 treatments
# [12] = Lipoma 5, pre-treatment size 2 × 1.8 cm, 4 treatments
# [13] = Lipoma 6, pre-treatment size 2.8 cm, 1 treatment
# [14] = Lipoma 7, pre-treatment size 3 × 2 cm, 2 treatments
# [15] = Lipoma 8, pre-treatment size 1 cm, 2 treatments
# [16] = Lipoma 10, pre-treatment size 2 cm, 2 treatments
# [17] = Lipoma 12, pre-treatment size 1 cm, 1 treatment
smiles,measurement,setting,value
"C[C@H](CCC(=O)[O-])[C@H]1CC[C@H]2[C@@H]3CC[C@@H]4C[C@H](O)CC[C@]4(C)[C@H]3C[C@H](O)[C@]12C.[Na+] [DC, sodium deoxycholate]","Percentage, DC 0.1%",A375M; [4],0.106
same,"Percentage, DC 0.1% + fat",A375M; [5],0.662
same,"Average, DC 0.1%",A375M; [6],0.064
same,"A375M (readings), DC 0.1%",A375M; [7],0.066 and 0.063
same,"Actual, DC 0.1%",A375M; [7],0.066 and 0.063
same,"A375M (readings), DC 0.1% + fat",A375M; [8],0.456 and 0.382 and 0.365
same,"Actual, DC 0.1% + fat",A375M; [8],0.456 and 0.382 and 0.365
same,"Average, DC 0.1% + fat",A375M; [9],0.401
same,effect of pre-incubation with fat on killing,[1],appears to reduce killing
same,LDH release (OD 490),HaCaT cells; 0.005% dilution,minimal LDH release
same,LDH release (OD 490),HaCaT cells; 0.05% and 0.5%,progressively more LDH released
same,cell lysis compared with PBF,HaCaT cells; cell culture,less cell lysis
same,"cell lysis (LDH release, FIG. 2b)",HaCaT cells; over the tested dilutions,concentration dependent increase in cell lysis
same,Change in volume (%),lipomas; [10],−100%
same,Post-treatment size,lipomas; [10],0
same,Change in volume (%),"lipomas; Lipoma 3, pre-treatment size 2 × 2.5 cm, 3 treatments",84%
same,Change in volume (%),lipomas; [11],84%
same,Post-treatment size,lipomas; [11],2
same,Change in volume (%),lipomas; [12],92%
same,Post-treatment size,lipomas; [12],1.3
same,Change in volume (%),lipomas; [13],99%
same,Post-treatment size,lipomas; [13],0.5
same,Change in volume (%),lipomas; [14],97%
same,Post-treatment size,lipomas; [14],0.8
same,Change in volume (%),lipomas; [15],100%
same,Post-treatment size,lipomas; [15],0
same,Change in volume (%),"lipomas; Lipoma 9, pre-treatment size 2 × 1 cm, 2 treatments",67%
same,Change in volume (%),lipomas; [16],73%
same,Post-treatment size,lipomas; [16],1.3
same,Change in volume (%),"lipomas; Lipoma 11, pre-treatment size 2 cm, 1 treatment",79%
same,Change in volume (%),lipomas; [17],50%
same,Post-treatment size,lipomas; [17],0.8
same,size of injected lipomas,"lipomas; six patients, 12 lipomas, after at least one treatment, six months",reduced in size
same,"Percentage, DC 0.1%",SKmel28; [4],0.098
same,"Percentage, DC 0.1% + fat",SKmel28; [5],0.485
same,"Average, DC 0.1%",SKmel28; [6],0.060
same,"Actual, DC 0.1%",SKmel28; [7],0.061 and 0.060
same,"SKmel28 (readings), DC 0.1%",SKmel28; [7],0.061 and 0.060
same,"Actual, DC 0.1% + fat",SKmel28; [8],0.290 and 0.304 and 0.302
same,"SKmel28 (readings), DC 0.1% + fat",SKmel28; [8],0.290 and 0.304 and 0.302
same,"Average, DC 0.1% + fat",SKmel28; [9],0.299
same,apparent reduction in deposit volume,fat deposits,50%
same,"cell viability (MTS, OD 490)",[2]; 0.005% dilution,little effect
same,"cell viability (MTS, OD 490)",[2]; 0.05% and 0.5% concentrations,progressively decreased
same,"viability of cultured cells (MTS, FIG. 2a)",[2]; approximately equal to the complete PBF,profoundly decreased the viability of cultured cells
same,Melanocytes surviving in DC only,[3]; DC 0.001 (w/v %),0.158 and 0.148 and 0.16
same,Melanocytes surviving in DC only,[3]; DC 0.005 (w/v %),0.128 and 0.109 and 0.103
same,Melanocytes surviving in DC only,[3]; DC 0.01 (w/v %),0.124 and 0.107 and 0.106
same,Melanocytes surviving in DC only,[3]; DC 0.05 (w/v %),0.056 and 0.038 and 0.048
same,Melanocytes surviving in DC only,[3]; DC 0.1 (w/v %),0.009 and 0.014 and 0.016
same,Average (DC only),[3]; DC 0.001 (w/v %),0.1553
same,Average (DC only),[3]; DC 0.005 (w/v %),0.1133
same,Average (DC only),[3]; DC 0.01 (w/v %),0.1123
same,Average (DC only),[3]; DC 0.05 (w/v %),0.04733
same,Average (DC only),[3]; DC 0.1 (w/v %),0.013
same,Average (DC only),[3]; DC 0.5 (w/v %),0.004
same,LD50 (concentration at which 50% of the cells are dead),"[3]; melanocyte cell line, w/v %",around 0.04%
